What all share (type): in vivo
One test concerns Geranium pusillum. Nature of the test: Greenhouse post-emergence (POST) herbicidal test on GERPU. As for the experimental part: (§1) The culture containers used were plastic pots containing loamy sand with approximately 3.0% of humus as substrate. The seeds of the test plants were sown separately for each species.
(§2) For the post-emergence treatment, the test plants were grown to a plant height of from 3 to 15 cm, depending on the plant habit, and only then treated with the active compounds which had been suspended or emulsified in water. To this end, the test plants were either sown directly, and grown in the same containers, or they were first grown separately as seedlings and transplanted into the test containers a few days prior to treatment.
(§3) Depending on the species, the plants were kept at 10-25° C. and 20-35° C., respectively.
(§4) The test period extended over 2 to 4 weeks. During this time, the plants were tended and their response to the individual treatments was evaluated.
(§5) Evaluation was carried out using a scale from 0 to 100. 100 means no emergence of the plants, or complete destruction of at least the above-ground parts, and 0 means no damage or normal course of growth. A good herbicidal activity is given at values of at least 70, and very good herbicidal activity is given at values of at least 85.
(§6) If not stated differently, the respective components A and B, and if appropriate, C were formulated as a 5% by weight strength emulsion concentrate and, with addition of the amount of solvent system, introduced into the spray liquor used for applying the active compound.
(§7) As indicated application was either post emergent (POST) at the respective growth stage (GS) of the weed (BBCH code), or pre-emergent (PRE). […]

In test [1] the test system is Abutilon theophrasti. Nature of the test: Greenhouse pre-emergence (PRE) herbicidal test on ABUTH. As to the method: as §1
(§8) The containers were irrigated gently to promote germination and growth and subsequently covered with transparent plastic hoods until the plants had rooted.
as §3, §4, §5, §7

The subject of the next test is Commelina benghalensis. As to the kind of experiment: Greenhouse pre-emergence (PRE) herbicidal test on COMBE. As to the method: as §1, §8, §3, §4, §5, §7
A further test has as its system Ambrosia artemisiifolia. Nature of the test: Greenhouse pre-emergence (PRE) herbicidal test on AMBEL. As for the experimental part:
as §1, §8, §3, §4, §5, §7

For a further test, the system named is Lolium multiflorum. Nature of the test: Greenhouse pre-emergence (PRE) herbicidal test on LOLMU. As for the experimental part: as §1, §8, §3, §4, §5, §7
In the next test the test system is Euphorbia heterophylla. As to the kind of experiment: Greenhouse pre-emergence (PRE) herbicidal test on EPHHL. The settings on record: Euphorbia heterophylla, pre-emergence. As for the experimental part: as §1, §8, §3, §4, §5, §7
A further test relates to Alopecurus myosuroides. Nature of the test: Greenhouse pre-emergence (PRE) herbicidal test on ALOMY. As for the experimental part: as §1, §8, §3, §4, §5, §7
Test [2] concerns Abutilon theophrasti. As to the kind of experiment: Greenhouse post-emergence (POST) herbicidal test on ABUTH. As to the method: as §1, §2, §3, §4, §5, §6, §7
The subject of a further test is Digitaria sanguinalis. Nature of the test: Greenhouse post-emergence (POST) herbicidal test on DIGSA. As for the experimental part: as §1, §2, §3, §4, §5, §6, §7
The subject of the next test is Echinochloa crus-galli. As to the kind of experiment: Greenhouse post-emergence (POST) herbicidal test on ECHCG. As to the method: as §1, §2, §3, §4, §5, §6, §7
Setting [3] is: PRE, use rate 0.25 gai/ha, 20 DAT.
[4] abbreviates: Digitaria sanguinalis, post-emergence, read-out: % activity.

For the molecule `CCNc1nc(Cl)nc(NC(C)C)n1` [Atrazine, atrazine], the inhibition at 50 g/ha stood at 30% in the test with Geranium pusillum (Geranium pusillum, post-emergence, 480 h, POST, GERPU, use rate 50 gai/ha, 20 DAT) and 0% in the test with Abutilon theophrasti [1] (Abutilon theophrasti, pre-emergence, 480 h, PRE, ABUTH, use rate 50 gai/ha, 20 DAT). Besides, the inhibition at 100 g/ha with Geranium pusillum (Geranium pusillum, post-emergence, 480 h, POST, GERPU, use rate 100 gai/ha, 20 DAT, read-out: % activity) came out at 75%; in the test on Commelina benghalensis (Commelina benghalensis, pre-emergence, 480 h, PRE, COMBE, use rate 100 gai/ha, 20 DAT), 25%.
For the molecule `CCOC1Oc2ccc(OS(C)(=O)=O)cc2C1(C)C` (stereo not drawn) [Ethofumesate, ethofumesate], in the test with Ambrosia artemisiifolia (Ambrosia artemisiifolia, pre-emergence, 480 h, PRE, use rate 250 gai/ha, 20 DAT), the inhibition at 250 g/ha came out at 0%. This molecule also yielded an inhibition at 1000 g/ha with Lolium multiflorum (Lolium multiflorum, pre-emergence, 480 h, PRE, use rate 1000 gai/ha, 20 DAT) of 60%.
As to `CCCN(CCC)c1c([N+](=O)[O-])cc(C(F)(F)F)cc1[N+](=O)[O-]` [Trifluralin, trifluralin], the pest or weed control at 500 g/ha in the test on Geranium pusillum (Geranium pusillum, post-emergence, 480 h, POST, GERPU, Trifluralin solo 500 gai/ha, 20 DAT, read-out: % activity) stood at 25%; with Ambrosia artemisiifolia (Ambrosia artemisiifolia, pre-emergence, 480 h, PRE, AMBEL, Trifluralin solo 500 gai/ha, 20 DAT, read-out: % activity) it was 10%; with Lolium multiflorum (Lolium multiflorum, pre-emergence, 480 h, PRE, LOLMU, Trifluralin solo 500 gai/ha, 20 DAT, read-out: % activity), 5%; with Abutilon theophrasti [1] (Abutilon theophrasti, pre-emergence, 480 h, PRE, ABUTH, Trifluralin solo 500 gai/ha, 20 DAT, read-out: % activity), 25%; with Abutilon theophrasti [2] (Abutilon theophrasti, post-emergence, 480 h, POST, ABUTH, Trifluralin solo 500 gai/ha, 20 DAT, read-out: % activity), 15%. Also, the pest or weed control at 1000 g/ha with Geranium pusillum (Geranium pusillum, post-emergence, 480 h, POST, GERPU, Trifluralin solo 1000 gai/ha, 20 DAT) was found to be 85%; in the test on Lolium multiflorum (Lolium multiflorum, pre-emergence, 480 h, PRE, LOLMU, Trifluralin solo 1000 gai/ha, 20 DAT) it was 15%; with Euphorbia heterophylla (480 h, PRE, EPHHL, Trifluralin solo 1000 gai/ha, 20 DAT), 35%; with Alopecurus myosuroides (Alopecurus myosuroides, pre-emergence, 480 h, PRE, ALOMY, Trifluralin solo 1000 gai/ha, 20 DAT), 65%; in the test on Commelina benghalensis (Commelina benghalensis, pre-emergence, 480 h, PRE, COMBE, Trifluralin solo 1000 gai/ha, 20 DAT), 80%; with Abutilon theophrasti [2] (Abutilon theophrasti, post-emergence, 480 h, POST, ABUTH, Trifluralin solo 1000 gai/ha, 20 DAT), 70%.
For `C#CCN1C(=O)C(F)(F)Oc2cc(F)c(-n3c(=O)n(C)c(=S)n(C)c3=O)cc21` [Trifludimoxazin, trifludimoxazin], the “% activity” value in the test with Ambrosia artemisiifolia (PRE, AMBEL, use rate 0.5 gai/ha) came out at 0%; with Abutilon theophrasti [1] (PRE, ABUTH, use rate 0.5 gai/ha) it was 0%; in the test on Alopecurus myosuroides (PRE, ALOMY, use rate 0.5 gai/ha) it was 10%; in the test with Digitaria sanguinalis (POST, DIGSA, use rate 1 gai/ha) it was 30%; with Abutilon theophrasti [2] (POST, ABUTH, use rate 0.5 gai/ha), 80%.
Consider `CP(=O)(O)CC[C@H](N)C(=O)O.N` [L-Glufosinate-P-Ammonium], for which the “% activity” value is given as 65% in the test with Geranium pusillum (POST, GERPU, use rate 75 gai/ha, 20 DAT) and 30% in the test with Echinochloa crus-galli (POST, ECHCG, use rate 75 gai/ha, 20 DAT).
For the molecule `CSc1nnc(C(C)(C)C)c(=O)n1N` [Metribuzin, metribuzin], the inhibition at 31.25 g/ha turned out to be 70% in the test with Geranium pusillum (Geranium pusillum, post-emergence, GERPU POST, use rate 31.25 gai/ha) and 10% with Commelina benghalensis (Commelina benghalensis, pre-emergence, COMBE PRE, use rate 31.25 gai/ha). The molecule also had an inhibition at 62.5 g/ha in the test with Commelina benghalensis (Commelina benghalensis, pre-emergence, COMBE PRE, use rate 62.5 gai/ha) of 20%.
As for `COc1cnc(OC)n2nc(NS(=O)(=O)c3c(OCC(F)F)cccc3C(F)(F)F)nc12` [Penoxsulam, penoxsulam], the inhibition at 2 g/ha with Echinochloa crus-galli (Echinochloa crus-galli, post-emergence, ECHCG POST, use rate 2 gai/ha, read-out: % activity) turned out to be 10%; with Digitaria sanguinalis (Digitaria sanguinalis, post-emergence, DIGSA POST, use rate 2 gai/ha, read-out: % activity) it was 0%. Also, the inhibition at 4 g/ha in the test with Echinochloa crus-galli (Echinochloa crus-galli, post-emergence, ECHCG POST, use rate 4 gai/ha) is 35%; in the test with Digitaria sanguinalis (Digitaria sanguinalis, post-emergence, DIGSA POST, use rate 4 gai/ha), 10%; in the test with Abutilon theophrasti [2] (Abutilon theophrasti, post-emergence, ABUTH POST, use rate 4 gai/ha), 0%.
In the case of `C[C@@H](Oc1ccc(Oc2nc3ccc(Cl)cc3o2)cc1)C(=O)N(C)c1ccccc1F` [Metamifop, metamifop], the “% activity” value in the test with Echinochloa crus-galli (ECHCG POST, use rate 6.25 gai/ha) was found to be 50%; in the test on Digitaria sanguinalis (DIGSA POST, use rate 25 gai/ha), 85%.
Regarding `CS(=O)(=O)c1cc(C(F)(F)F)ccc1C(=O)c1cnoc1C1CC1` [Isoxaflutole, isoxaflutole], the inhibition at 6.3 g/ha with Ambrosia artemisiifolia (Ambrosia artemisiifolia, pre-emergence, AMBEL PRE, use rate 6.3 gai/ha) was 25%; in the test with Lolium multiflorum (Lolium multiflorum, pre-emergence, LOLMU PRE, use rate 6.3 gai/ha), 0%; with Abutilon theophrasti [1] (Abutilon theophrasti, pre-emergence, ABUTH PRE, use rate 6.3 gai/ha), 45%; in the test with Euphorbia heterophylla (EPHHL PRE, use rate 6.3 gai/ha) it was 45%; in the test on Alopecurus myosuroides (Alopecurus myosuroides, pre-emergence, ALOMY PRE, use rate 6.3 gai/ha), 0%. The inhibition at 25 g/ha came out at 75% in the test with Euphorbia heterophylla (EPHHL PRE, use rate 25 gai/ha) and 0% with Alopecurus myosuroides (Alopecurus myosuroides, pre-emergence, ALOMY PRE, use rate 25 gai/ha).
With `CS(=O)(=O)c1ccc(C(=O)C2C(=O)CCCC2=O)c([N+](=O)[O-])c1` [Mesotrione, mesotrione], the inhibition at 4 g/ha is 20% in the test with Euphorbia heterophylla (EPHHL PRE, use rate 4 gai/ha) and 25% in the test with Commelina benghalensis (Commelina benghalensis, pre-emergence, COMBE PRE, use rate 4 gai/ha). The same molecule returned an inhibition at 16 g/ha in the test with Euphorbia heterophylla (EPHHL PRE, use rate 16 gai/ha) of 45%.
As for `CCCN(CCC)C(=O)SCc1ccccc1` [Prosulfocarb, prosulfocarb], the pest or weed control at 600 g/ha in the test with Geranium pusillum (Geranium pusillum, post-emergence, 480 h, POST, GERPU, Prosulfocarb solo 600 gai/ha, 20 DAT) was 20%; in the test on Ambrosia artemisiifolia (Ambrosia artemisiifolia, pre-emergence, 480 h, PRE, AMBEL, Prosulfocarb solo 600 gai/ha, 20 DAT) it was 10%; with Lolium multiflorum (Lolium multiflorum, pre-emergence, 480 h, PRE, LOLMU, Prosulfocarb solo 600 gai/ha, 20 DAT), 20%; in the test on Abutilon theophrasti [1] (Abutilon theophrasti, pre-emergence, 480 h, PRE, ABUTH, Prosulfocarb solo 600 gai/ha, 20 DAT), 40%; in the test on Euphorbia heterophylla (480 h, PRE, EPHHL, Prosulfocarb solo 600 gai/ha, 20 DAT) it was 5%; with Digitaria sanguinalis (Digitaria sanguinalis, post-emergence, 480 h, POST, DIGSA, Prosulfocarb solo 600 gai/ha, 20 DAT), 5%. Moreover, the pest or weed control at 150 g/ha in the test with Lolium multiflorum (Lolium multiflorum, pre-emergence, 480 h, PRE, LOLMU, Prosulfocarb solo 150 gai/ha, 20 DAT) was determined as 15%; in the test with Euphorbia heterophylla (480 h, PRE, EPHHL, Prosulfocarb solo 150 gai/ha, 20 DAT), 5%.
As to `CCc1cnc(C2=NC(C)(C(C)C)C(=O)N2)c(C(=O)O)c1` (stereo not drawn) [Imazethapyr, imazethapyr], the inhibition at […] turned out to be 0% in the test with Ambrosia artemisiifolia (Ambrosia artemisiifolia, pre-emergence, PRE, AMBEL, use rate 7.5 gai/ha, read-out: % activity); 60% in the test on Abutilon theophrasti [1] (Abutilon theophrasti, pre-emergence, PRE, ABUTH, use rate 7.5 gai/ha, read-out: % activity); 30% in the test on Commelina benghalensis (Commelina benghalensis, pre-emergence, PRE, COMBE, use rate 7.5 gai/ha, read-out: % activity). Further, the inhibition at 15 g/ha is 10% in the test with Ambrosia artemisiifolia (Ambrosia artemisiifolia, pre-emergence, PRE, AMBEL, use rate 15 gai/ha); 40% in the test on Lolium multiflorum (Lolium multiflorum, pre-emergence, PRE, LOLMU, use rate 15 gai/ha); 70% in the test with Commelina benghalensis (Commelina benghalensis, pre-emergence, PRE, COMBE, use rate 15 gai/ha).
On to `CCOC(=O)COc1ncccc1Oc1cc(-n2c(=O)cc(C(F)(F)F)n(C)c2=O)c(F)cc1Cl` [Epyrifenacil, epyrifenacil], for which the “% activity” value with Echinochloa crus-galli (ECHCG POST, use rate 1 gai/ha) was determined as 45%; with Digitaria sanguinalis (DIGSA POST, use rate 0.5 gai/ha) it was 20%; in the test with Digitaria sanguinalis (DIGSA POST, use rate 1 gai/ha), 55%.
Regarding `COC(=O)c1ccc(CNS(C)(=O)=O)cc1S(=O)(=O)NC(=O)Nc1nc(OC)cc(OC)n1` [Mesosulfuron-Methyl, mesosulfuron-methyl], the “% activity” value in the test with Lolium multiflorum (setting [3]) is listed as 0%; in the test on Lolium multiflorum (PRE, use rate 1 gai/ha, 20 DAT), 0%; in the test on Alopecurus myosuroides (setting [3]), 0%; with Alopecurus myosuroides (PRE, use rate 1 gai/ha, 20 DAT), 10%; in the test on Commelina benghalensis (setting [3]) it was 35%.
Take `CCCCOC(=O)[C@@H](C)Oc1ccc(Oc2ccc(C#N)cc2F)cc1` [Cyhalofop-Butyl, cyhalofop-butyl]: the inhibition at 6.25 g/ha worked out at 80% in the test on Echinochloa crus-galli (Echinochloa crus-galli, post-emergence, read-out: % activity) and 35% in the test on Digitaria sanguinalis (setting [4]). Moreover, in the test with Digitaria sanguinalis (setting [4]), the inhibition at 25 g/ha came to 70%.

(Values after US20260007133A1, “HERBICIDAL COMPOSITION COMPRISING AZINE COMPOUNDS” (BASF SE, priority 2022, published 2026).)
